The source of these data is patent US8124780B2, “Benzimidazole compound” (priority 2005, dated 2012).

Where a name gives a salt, the structure may show the parent alone. Read-outs that look alike come from different tables or passages of the source.

In the assay the test system is gastric acid secretion. Description: animal or person. The class given is in vivo, dog. Conditions: for inhibition in vivo at 0.4 mg/kg / inhibition in vivo at 0.8 mg/kg / inhibition in vivo at 0.2 mg/kg / inhibition in vivo at 1.6 mg/kg / inhibition in vivo at 0.1 mg/kg: Canis lupus familiaris; for inhibition in vivo at 0.1 mg/kg: dose 0.1 mg/kg i.d.
Where [1] appears, read: iv, 24 h, read-out: Persistency of inhibitory effect against gastric acid secretion (%).
Setting [2] is: iv, read-out: Inhibitory effect against gastric acid secretion (%).
Where [3] appears, read: dose 0.4 mg/kg i.d., first day, 1 h 40 min to 2 h after administration, histamine i.v., 0.4 mg/kg.
[4] abbreviates: dose 0.4 mg/kg i.d., second day, 24 hours after administration, histamine i.v., 0.4 mg/kg.

Regarding `Cc1c(OCC2OCC(C)(C)CO2)ccnc1C[S+]([O-])c1nc2ccccc2[nH]1` (stereo not drawn) [Example 1, 2-(((4-((5,5-dimethyl-1,3-dioxan-2-yl)methoxy)-3-methylpyridin-2-yl)methyl)sulfinyl)-1H-benzimidazole sodium salt], the inhibition in vivo at 0.4 mg/kg stood at 76% under setting [1] and 94% under setting [2]. The inhibition in vivo at 0.8 mg/kg runs as follows: under setting [1], 90%; under setting [2], 100%.
`Cc1c(OCC2OCC3(CC3)CO2)ccnc1C[S+]([O-])c1nc2ccccc2[nH]1` (stereo not drawn) [Example 2, 2-(((4-(5,7-dioxaspiro[2.5]oct-6-ylmethoxy)-3-methylpyridin-2-yl)methyl)sulfinyl)-1H-benzimidazole sodium salt]: under setting [1], the inhibition in vivo at 0.2 mg/kg is 52%, the inhibition in vivo at 0.4 mg/kg is 90% and the inhibition in vivo at 0.8 mg/kg stood at 96%. In addition, under setting [2], the inhibition in vivo at 0.2 mg/kg stood at 83%, the inhibition in vivo at 0.4 mg/kg is 100% and the inhibition in vivo at 0.8 mg/kg is 100%.
As for `CCCC1(CCOc2ccnc(C[S+]([O-])c3nc4ccccc4[nH]3)c2C)OCCO1` (stereo not drawn) [Example 3, 2-(((3-methyl-4-(2-(2-propyl-1,3-dioxolan-2-yl)ethoxy)pyridin-2-yl)methyl)sulfinyl)-1H-benzimidazole sodium salt], the inhibition in vivo at 0.8 mg/kg is 86% under setting [1] and 100% under setting [2].
In the case of `CCC1(CCOc2ccnc(C[S+]([O-])c3nc4ccccc4[nH]3)c2C)OCC2(CO1)OCCO2` (stereo not drawn) [Example 4, 2-(((4-(2-(8-ethyl-1,4,7,9-tetraoxaspiro[4.5]dec-8-yl)ethoxy)-3-methylpyridin-2-yl)methyl)sulfinyl)-1H-benzimidazole sodium salt], the inhibition in vivo at 0.8 mg/kg under setting [1] worked out at 93% and the inhibition in vivo at 0.8 mg/kg under setting [2] was 100%.
Take `Cc1c(OCC2(C)OCC3(CO2)OCCO3)ccnc1C[S+]([O-])c1nc2ccccc2[nH]1` (stereo not drawn) [Example 5, 2-(((3-methyl-4-((8-methyl-1,4,7,9-tetraoxaspiro[4.5]dec-8-yl)methoxy)pyridin-2-yl)methyl)sulfinyl)-1H-benzimidazole sodium salt]: under setting [1], the inhibition in vivo at 0.4 mg/kg was determined as 61% and the inhibition in vivo at 0.8 mg/kg is 89%. For the same molecule, under setting [2], the inhibition in vivo at 0.4 mg/kg is 54% and the inhibition in vivo at 0.8 mg/kg worked out at 100%.
As for `COC1OCC(COc2ccnc(C[S+]([O-])c3nc4ccccc4[nH]3)c2C)CO1` (stereo not drawn) [Example 6, 2-(((4-((2-methoxy-1,3-dioxan-5-yl)methoxy)-3-methylpyridin-2-yl)methyl)sulfinyl)-1H-benzimidazole sodium salt], the inhibition in vivo at 0.8 mg/kg under setting [1] amounted to 89% and the inhibition in vivo at 0.8 mg/kg under setting [2] came to 100%.
Taken in the same sequence, the figures for `Cc1c(OCC2COC(CF)(CF)OC2)ccnc1C[S+]([O-])c1nc2ccccc2[nH]1` (stereo not drawn) [Example 7, 2-(((4-((2,2-bis(fluoromethyl)-1,3-dioxan-5-yl)methoxy)-3-methylpyridin-2-yl)methyl)sulfinyl)-1H-benzimidazole sodium salt] were 90% and 99%.
The corresponding values for `CCCC1(CCOc2ccnc(C[S+]([O-])c3nc4ccccc4[nH]3)c2C)OCCCO1` (stereo not drawn) [Example 8, 2-(((3-methyl-4-(2-(2-propyl-1,3-dioxan-2-yl)ethoxy)pyridin-2-yl)methyl)sulfinyl)-1H-benzimidazole sodium salt] are 88% and 100%.
Taken in the same sequence, the figures for `Cc1c(OC2COC3(CCC3)OC2)ccnc1C[S+]([O-])c1nc2ccccc2[nH]1` (stereo not drawn) [Example 9, 2-(((4-(5,9-dioxaspiro[3.5]non-7-yloxy)-3-methylpyridin-2-yl)methyl)sulfinyl)-1H-benzimidazole sodium salt] were 90% and 100%.
On to `Cc1c(OCC2COC3(CCOCC3)OC2)ccnc1C[S+]([O-])c1nc2ccccc2[nH]1` (stereo not drawn) [Example 10, 2-(((3-methyl-4-(1,5,9-trioxaspiro[5.5]undec-3-ylmethoxy)pyridin-2-yl)methyl)sulfinyl)-1H-benzimidazole sodium salt], for which, under setting [1], the inhibition in vivo at 0.8 mg/kg was determined as 90% and the inhibition in vivo at 1.6 mg/kg turned out to be 87%. In addition, under setting [2], the inhibition in vivo at 0.8 mg/kg is 98% and the inhibition in vivo at 1.6 mg/kg was determined as 100%.
For `Cc1cnc(C[S+]([O-])c2nc3ccccc3[nH]2)c(C)c1OCC1COC(C)(C)OC1` (stereo not drawn) [Example 11, 2-(((4-((2,2-dimethyl-1,3-dioxan-5-yl)methoxy)-3,5-dimethylpyridin-2-yl)methyl)sulfinyl)-1H-benzimidazole sodium salt], under setting [1], the inhibition in vivo at 0.4 mg/kg worked out at 65% and the inhibition in vivo at 0.8 mg/kg was found to be 89%. For the same molecule, under setting [2], the inhibition in vivo at 0.4 mg/kg turned out to be 79% and the inhibition in vivo at 0.8 mg/kg amounted to 100%.
Regarding `Cc1c(OCC2COC(C)(C)OC2)ccnc1C[S+]([O-])c1nc2ccccc2[nH]1` (stereo not drawn) [Example 12, 2-(((4-((2,2-dimethyl-1,3-dioxan-5-yl)methoxy)-3-methylpyridin-2-yl)methyl)sulfinyl)-1H-benzimidazole sodium salt], the inhibition in vivo at 0.8 mg/kg under setting [1] came out at 86% and the inhibition in vivo at 0.8 mg/kg under setting [2] stood at 100%.
Taken in the same sequence, the figures for `Cc1cnc(C[S+]([O-])c2nc3ccccc3[nH]2)c(C)c1OCC1COC2(CCC2)OC1` (stereo not drawn) [Example 13, 2-(((4-(5,9-dioxaspiro[3.5]non-7-ylmethoxy)-3,5-dimethylpyridin-2-yl)methyl)sulfinyl)-1H-benzimidazole sodium salt] were 74% and 100%.
In the case of `Cc1cnc(C[S+]([O-])c2nc3ccccc3[n-]2)c(C)c1OCC1COC(C)(C)OC1.[Na+]` (stereo not drawn) [Example 19, Sodium salt of an optical isomer (long in retention time) of 2-(((4-((2,2-dimethyl-1,3-dioxan-5-yl)methoxy)-3,5-dimethylpyridin-2-yl)methyl)sulfinyl)-1H-benzimidazole], under “i.d., dose 0.8 mg/kg i.d., first day, 1 h 40 min to 2 h after administration, histamine i.v., read-out: Inhibitory effect against gastric acid secretion (%)”, the inhibition in vivo at 0.8 mg/kg was found to be 82%. Moreover, the “Inhibitory effect against gastric acid secretion (%)” value under setting [3] amounted to 13%. The “Persistency of inhibitory effect against gastric acid secretion (%)” value (from here on “Persistency of inhibitory effect … (%)”) is listed as −4% under setting [4] and 56% (dose 0.8 mg/kg i.d., second day, 24 hours after administration, histamine i.v.).
`Cc1cnc(C[S+]([O-])c2nc3ccccc3[n-]2)c(C)c1OCC1COC(C)(C)OC1.[Na+]` (stereo not drawn) [Example 20, Sodium salt of an optical isomer (short in retention time) of 2-(((4-(2,2-dimethyl-1,3-dioxan-5-yl)methoxy-3,5-dimethylpyridin-2-yl)methyl)sulfinyl)-1H-benzimidazole]: the inhibition in vivo at 0.1 mg/kg runs as follows: (i.d., 24 h, second day, 24 hours after administration, histamine i.v., read-out: Persistency of inhibitory effect against gastric acid secretion (%)) 6%; (i.d., first day, 1 h 40 min to 2 h after administration, histamine i.v., read-out: Inhibitory effect against gastric acid secretion (%)) 8%. Besides, the inhibition in vivo at 0.2 mg/kg by setting is: (i.d., 24 h, dose 0.2 mg/kg i.d., second day, 24 hours after administration, histamine i.v., read-out: Persistency of inhibitory effect against gastric acid secretion (%)) 46%; (i.d., dose 0.2 mg/kg i.d., first day, 1 h 40 min to 2 h after administration, histamine i.v., read-out: Inhibitory effect against gastric acid secretion (%)) 65%. In addition, the “Inhibitory effect against gastric acid secretion (%)” value turned out to be 97% under setting [3] and 100% (dose 0.8 mg/kg i.d., first day, 1 h 40 min to 2 h after administration, histamine i.v., 0.8 mg/kg). In addition, the “Persistency of inhibitory effect … (%)” value reads like this: under setting [4], 77%; (dose 0.8 mg/kg i.d., second day, 24 hours after administration, histamine i.v., 0.8 mg/kg) 89%.
With `Cc1c(OCC2COC3(CCCC3)OC2)ccnc1C[S+]([O-])c1nc2ccccc2[nH]1` (stereo not drawn) [Example 21, 2-(((4-(6,10-dioxaspiro[4.5]dec-8-ylmethoxy)-3-methylpyridin-2-yl)methyl)sulfinyl)-1H-benzimidazole sodium salt], the inhibition in vivo at 1.6 mg/kg reads like this: under setting [1], 94%; under setting [2], 100%.
Take `Cc1c(OCC2COC3(CCC3)OC2)ccnc1C[S+]([O-])c1nc2ccccc2[nH]1` (stereo not drawn) [Example 22, 2-(((4-(5,9-dioxaspiro[3.5]non-7-ylmethoxy)-3-methylpyridin-2-yl)methyl)sulfinyl)-1H-benzimidazole sodium salt]: the inhibition in vivo at 1.6 mg/kg under setting [1] came out at 97% and the inhibition in vivo at 1.6 mg/kg under setting [2] came out at 100%.
Taken in the same sequence, the figures for `CCC1(CC)OCC(COc2ccnc(C[S+]([O-])c3nc4ccccc4[nH]3)c2C)CO1` (stereo not drawn) [Example 23, 2-(((4-((2,2-diethyl-1,3-dioxan-5-yl)methoxy)-3-methylpyridin-2-yl)methyl)sulfinyl)-1H-benzimidazole sodium salt] were 92% and 100%.
As to `Cc1c(OCC23COC(C)(OC2)OC3)ccnc1C[S+]([O-])c1nc2ccccc2[n-]1.[Na+]` (stereo not drawn) [Example 24, 2-(((3-methyl-4-((1-methyl-2,6,7-trioxabicyclo[2.2.2]oct-4-yl)methoxy)pyridin-2-yl)methyl)sulfinyl)-1H-benzimidazole sodium salt], where the note is “dog, in vivo, iv, 1.6 mg/kg”, the “Inhibitory effect against gastric acid secretion (%)” value came out at 88% and the “Persistency of inhibitory effect … (%)” value came out at 80%.
Turning to `Cc1c(OC2COC(C)(C)OC2)ccnc1C[S+]([O-])c1nc2ccccc2[nH]1` (stereo not drawn) [Example 26, 2-(((4-((2,2-dimethyl-1,3-dioxan-5-yl)oxy)-3-methylpyridin-2-yl)methyl)sulfinyl)-1H-benzimidazole sodium salt], the inhibition in vivo at 1.6 mg/kg is, setting by setting: under setting [1], 80%; under setting [2], 100%.
